The assay has as its target T1, Arginase-1 (Bos taurus, UniProt Q2KJ64).
T1 sequence (Q2KJ64 whole entry): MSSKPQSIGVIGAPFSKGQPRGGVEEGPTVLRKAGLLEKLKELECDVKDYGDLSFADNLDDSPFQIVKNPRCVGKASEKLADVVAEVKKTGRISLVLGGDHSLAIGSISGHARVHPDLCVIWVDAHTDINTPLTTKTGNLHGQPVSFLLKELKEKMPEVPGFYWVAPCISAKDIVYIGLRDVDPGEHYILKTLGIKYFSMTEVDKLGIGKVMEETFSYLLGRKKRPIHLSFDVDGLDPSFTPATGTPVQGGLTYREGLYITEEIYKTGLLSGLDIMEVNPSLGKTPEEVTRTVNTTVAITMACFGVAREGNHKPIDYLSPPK
Briefly: Inhibition of bovine liver arginase 1 using L-arginine as substrate incubated for 60 mins by OPA-p colorimetric assay.

Usually IC50 stands for the point on the concentration scale where inhibition reaches its midpoint. The low end stands for greater potency, the high end for weaker potency.

As for `Oc1ccc(Cl)cc1C1CC(c2ccco2)=NN1` (configuration not stated), the IC50 turned out to be 720 µM.

Compound `O=C1/C(=C/c2ccc(O)c(O)c2)Oc2cc(O)ccc21` [SULFURETIN] showed an IC50 of 437 µM.

In the case of `Oc1cccc(O)c1O` [PYROGALLOL], the IC50 is 375 µM.

`O=C(/C=C/c1ccc(O)c(O)c1)c1ccc(O)c(O)c1` had an IC50 of 91.1 µM.

Consider `O=C1/C(=C/c2ccc(O)c(O)c2)Oc2c1ccc(O)c2O`, for which it took 254 µM to reach half-maximal inhibition (IC50).

In the case of `O=C1/C(=C/c2c(F)c(F)c(F)c(F)c2F)Oc2c1ccc(O)c2O`, it took 1090 µM to reach half-maximal inhibition (IC50).

Compound `O=C(/C=C/c1ccc(O)c(O)c1)O[C@@H]1C[C@](O)(C(=O)O)C[C@@H](O)[C@H]1O` [CHLOROGENIC ACID] gave an IC50 of 271 µM.

Turning to `O=C(/C=C/c1cc(O)cc(O)c1)c1ccc(O)c(O)c1`, the IC50 came to 364 µM.

Compound `O=C1/C(=C/c2cccc(O)c2)Oc2c1ccc(O)c2O` gave an IC50 of 120 µM.

On to `O=C1/C(=C/c2ccc(F)c(F)c2)Oc2c1ccc(O)c2O`, for which the IC50 is 312 µM.

As to `O=C(/C=C/c1ccc(O)c(O)c1)c1ccccc1`, the IC50 turned out to be 351 µM.

The compound `N[C@@H](CSCCB(O)O)C(=O)O` gave an IC50 of 23 µM.

In turn, `O=C(/C=C/c1ccc(O)c(O)c1)c1cccc(O)c1` showed an IC50 of 102 µM.

In turn, `O=C1/C(=C/c2ccc(O)c(O)c2O)Oc2c1ccc(O)c2O` registered an IC50 of 532 µM.

With `O=C(/C=C/c1ccc(O)c(O)c1)c1c(O)cc(O)cc1O` [3,4,2',4',6'-PENTAHYDROXYCHALCONE], the IC50 was determined as 98 µM.

On to `O=C(/C=C/c1ccc(O)cc1)c1ccc(O)c(O)c1`, for which the IC50 turned out to be 302 µM.

Consider `O=C(/C=C/c1cccc(O)c1)c1ccc(O)c(O)c1`, for which inhibition was half-maximal at 135 µM (IC50).

In the case of `O=C1/C(=C/c2ccc(F)cc2)Oc2c1ccc(O)c2O`, half-maximal inhibition (IC50) required 507 µM.

In turn, `O=C1C(=Cc2ccc(O)c(O)c2)C(=O)c2ccccc21` had an IC50 of 537 µM.

`O=C(/C=C/c1ccc(O)c(O)c1)c1cc(O)cc(O)c1`: the IC50 came out at 136 µM.

`O=C(/C=C/c1cc(O)c(O)c(O)c1)c1ccc(O)c(O)c1` displayed an IC50 of 764 µM.

The compound `Oc1cc(O)cc(/C=C/c2ccc(O)c(O)c2)c1` [PICEATANNOL] came in with an IC50 of 71.6 µM.

For `O=C(/C=C/c1ccccc1)c1ccc(O)c(O)c1`, the IC50 is 384 µM.

`O=C1/C(=C/c2ccc(O)cc2)Oc2c1ccc(O)c2O`: the IC50 amounted to 1930 µM.

The compound `O=C(/C=C/c1ccc(O)c(O)c1)c1ccc(O)cc1O` [BUTEIN] yielded an IC50 of 1550 µM.

`O=C(/C=C/c1ccc(O)c(O)c1)c1ccc(O)cc1`: the IC50 turned out to be 354 µM.

The compound `O=C1/C(=C/c2cc(O)c(O)c(O)c2)Oc2c1ccc(O)c2O` returned an IC50 of 287 µM.

Source of the values: ChEMBL document CHEMBL5532687, “A colorimetric assay adapted to fragment screening revealing aurones and chalcones as new arginase inhibitors” (RSC Med Chem, 2024).
